Values quoted from earlier work in patent publication US12653843B2, “Compositions comprising extracellular matrix of primitive animal species and related methods” (University of Pittsburgh—Of the Commonwealth System of …, priority 2016, dated 2026).

Molecular target: ErbB2 (Homo sapiens, UniProt P04626)
Sequence (P04626 23-1255, species assumed): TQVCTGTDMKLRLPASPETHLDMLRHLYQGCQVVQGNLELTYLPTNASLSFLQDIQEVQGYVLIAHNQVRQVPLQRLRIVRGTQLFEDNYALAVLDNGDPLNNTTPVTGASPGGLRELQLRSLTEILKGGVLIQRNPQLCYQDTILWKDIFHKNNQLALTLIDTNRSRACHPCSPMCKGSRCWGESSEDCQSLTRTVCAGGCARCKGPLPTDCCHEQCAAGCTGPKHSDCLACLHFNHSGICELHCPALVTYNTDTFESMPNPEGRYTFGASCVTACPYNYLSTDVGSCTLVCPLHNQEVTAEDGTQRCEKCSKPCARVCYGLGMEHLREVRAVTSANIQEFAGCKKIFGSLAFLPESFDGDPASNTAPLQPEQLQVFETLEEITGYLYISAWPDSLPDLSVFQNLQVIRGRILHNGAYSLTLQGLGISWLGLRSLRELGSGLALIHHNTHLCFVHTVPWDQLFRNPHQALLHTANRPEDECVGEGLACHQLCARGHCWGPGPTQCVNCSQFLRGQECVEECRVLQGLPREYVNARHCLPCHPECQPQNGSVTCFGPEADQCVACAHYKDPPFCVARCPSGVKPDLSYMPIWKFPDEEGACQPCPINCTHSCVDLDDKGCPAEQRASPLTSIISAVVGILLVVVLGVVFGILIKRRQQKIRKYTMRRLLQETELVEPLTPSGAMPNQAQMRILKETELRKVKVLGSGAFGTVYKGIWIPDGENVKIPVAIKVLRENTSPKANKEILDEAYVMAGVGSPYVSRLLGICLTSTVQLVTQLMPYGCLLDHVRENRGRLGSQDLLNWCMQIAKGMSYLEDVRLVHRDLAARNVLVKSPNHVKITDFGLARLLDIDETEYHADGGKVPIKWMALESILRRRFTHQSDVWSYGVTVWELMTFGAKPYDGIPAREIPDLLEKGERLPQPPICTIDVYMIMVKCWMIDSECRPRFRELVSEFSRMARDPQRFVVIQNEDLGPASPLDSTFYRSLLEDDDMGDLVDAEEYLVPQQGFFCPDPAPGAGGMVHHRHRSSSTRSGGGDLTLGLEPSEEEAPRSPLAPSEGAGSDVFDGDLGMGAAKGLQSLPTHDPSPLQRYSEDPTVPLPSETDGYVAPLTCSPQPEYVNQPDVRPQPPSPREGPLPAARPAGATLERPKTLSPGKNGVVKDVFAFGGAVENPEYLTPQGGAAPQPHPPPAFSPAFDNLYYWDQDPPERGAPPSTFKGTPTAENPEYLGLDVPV

COc1cc(/C=C(\C#N)C(N)=O)cc(CSc2nc3ccccc3s2)c1O [AG825]
selectivity: inhibition of ErbB2 autophosphorylation versus ErbB1 (EGFR): ~60 fold
